According to PubChem BioAssay AID1963840 (Molecular Pharmacology Branch, DTP, NCI, 2024):

Test system: 695427-040-R-J1-PDC complex spheroid viability
Assay: Anticancer human tumor 695427-040-R-J1-PDC patient-derived colon adenocarcinoma cell line growth inhibition [POLQ]
Conditions: for IC50: curve of first compound; for viability, T/C: stronger effect = lower value
Outline: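 Growth inhibition in 3D: complex spheroids (tumor PDC, HUVEC, MSC) treated with POLQ inhibitor combinations; where Cmax unknown, highest tested concentration 10 microM, except SN-38 at 1 microM.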

[1] = second compound 0.0316 µM, first compound 0.0316 µM
[2] = second compound 0.0316 µM, first compound 0.1 µM
[3] = second compound 0.0316 µM, first compound 0.316 µM
[4] = second compound 0.0316 µM, first compound 1 µM
[5] = second compound 0.1 µM, first compound 0.0316 µM
[6] = second compound 0.1 µM, first compound 0.1 µM
[7] = second compound 0.1 µM, first compound 0.316 µM
[8] = second compound 0.1 µM, first compound 1 µM
[9] = second compound 0.316 µM, first compound 0.0316 µM
[10] = second compound 0.316 µM, first compound 0.1 µM
[11] = second compound 0.316 µM, first compound 0.316 µM
[12] = second compound 0.316 µM, first compound 1 µM
[13] = second compound 1 µM, first compound 0.0316 µM
[14] = second compound 1 µM, first compound 0.1 µM
[15] = second compound 1 µM, first compound 0.316 µM
[16] = second compound 1 µM, first compound 1 µM
[17] = second compound 3.16 µM, first compound 0.0316 µM
[18] = second compound 3.16 µM, first compound 0.1 µM
[19] = second compound 3.16 µM, first compound 0.316 µM
[20] = second compound 3.16 µM, first compound 1 µM
[21] = second compound 10 µM, first compound 0.0316 µM
[22] = second compound 10 µM, first compound 0.1 µM
[23] = second compound 10 µM, first compound 0.316 µM
[24] = second compound 10 µM, first compound 1 µM
[25] = second compound 0.0316 µM, first compound 3.16 µM
[26] = second compound 0.0316 µM, first compound 10 µM
[27] = second compound 0.1 µM, first compound 3.16 µM
[28] = second compound 0.1 µM, first compound 10 µM
[29] = second compound 0.316 µM, first compound 3.16 µM
[30] = second compound 0.316 µM, first compound 10 µM
[31] = second compound 1 µM, first compound 3.16 µM
[32] = second compound 1 µM, first compound 10 µM
[33] = second compound 3.16 µM, first compound 3.16 µM
[34] = second compound 3.16 µM, first compound 10 µM
[35] = second compound 10 µM, first compound 3.16 µM
[36] = second compound 10 µM, first compound 10 µM
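Further: spheroids exposed to compounds for seven days.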
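Wherever viability, T/C is given: 100% = DMSO vehicle control viability.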

C=CCn1c(=O)c2cnc(Nc3ccc(N4CCN(C)CC4)cc3)nc2n1-c1cccc(C(C)(C)O)n1 + Nc1ccc(C#CCN(C(=O)Cc2ncc(C(F)(F)F)cc2C(F)(F)F)c2ccc(F)cc2)nn1
IC50 (second compound 0.0316 µM): > 1 µM | IC50 (second compound 0.1 µM): > 1 µM | IC50 (second compound 0.316 µM): > 1 µM | IC50 (second compound 1 µM): > 1 µM | IC50 (second compound 3.16 µM): > 1 µM | IC50 (second compound 10 µM): > 1 µM | viability, T/C (second compound 0.0316 µM, first compound 0.00316 µM): 101% | viability, T/C (second compound 0.0316 µM, first compound 0.01 µM): 99.5% | viability, T/C [1]: 112% | viability, T/C [2]: 101% | viability, T/C [3]: 96.7% | viability, T/C [4]: 74.6% | viability, T/C (second compound 0.1 µM, first compound 0.00316 µM): 106% | viability, T/C (second compound 0.1 µM, first compound 0.01 µM): 101% | viability, T/C [5]: 94.8% | viability, T/C [6]: 96.9% | viability, T/C [7]: 99.9% | viability, T/C [8]: 78% | viability, T/C (second compound 0.316 µM, first compound 0.00316 µM): 113% | viability, T/C (second compound 0.316 µM, first compound 0.01 µM): 107% | viability, T/C [9]: 101% | viability, T/C [10]: 97.7% | viability, T/C [11]: 91.4% | viability, T/C [12]: 81% | viability, T/C (second compound 1 µM, first compound 0.00316 µM): 104% | viability, T/C (second compound 1 µM, first compound 0.01 µM): 96% | viability, T/C [13]: 96.4% | viability, T/C [14]: 94.2% | viability, T/C [15]: 93.8% | viability, T/C [16]: 71.7% | viability, T/C (second compound 3.16 µM, first compound 0.00316 µM): 98.6% | viability, T/C (second compound 3.16 µM, first compound 0.01 µM): 101% | viability, T/C [17]: 107% | viability, T/C [18]: 98.7% | viability, T/C [19]: 85.8% | viability, T/C [20]: 74.2% | viability, T/C (second compound 10 µM, first compound 0.00316 µM): 91.8% | viability, T/C (second compound 10 µM, first compound 0.01 µM): 93.7% | viability, T/C [21]: 85.8% | viability, T/C [22]: 99.4% | viability, T/C [23]: 81.8% | viability, T/C [24]: 65.3%

CC1COCCN1c1cc(C2(S(C)(=N)=O)CC2)nc(-c2ccnc3[nH]ccc23)n1 (stereo unspecified) + Nc1ccc(C#CCN(C(=O)Cc2ncc(C(F)(F)F)cc2C(F)(F)F)c2ccc(F)cc2)nn1
IC50 (second compound 0.0316 µM): > 10 µM | IC50 (second compound 0.1 µM): > 10 µM | IC50 (second compound 0.316 µM): > 10 µM | IC50 (second compound 1 µM): > 10 µM | IC50 (second compound 3.16 µM): > 10 µM | IC50 (second compound 10 µM): > 10 µM | viability, T/C [1]: 110% | viability, T/C [2]: 103% | viability, T/C [3]: 99.4% | viability, T/C [4]: 106% | viability, T/C [25]: 99.6% | viability, T/C [26]: 96.2% | viability, T/C [5]: 108% | viability, T/C [6]: 100% | viability, T/C [7]: 97.4% | viability, T/C [8]: 98.1% | viability, T/C [27]: 112% | viability, T/C [28]: 94.5% | viability, T/C [9]: 96.8% | viability, T/C [10]: 104% | viability, T/C [11]: 93.9% | viability, T/C [12]: 104% | viability, T/C [29]: 99.9% | viability, T/C [30]: 82.2% | viability, T/C [13]: 102% | viability, T/C [14]: 101% | viability, T/C [15]: 102% | viability, T/C [16]: 102% | viability, T/C [31]: 102% | viability, T/C [32]: 86.6% | viability, T/C [17]: 100% | viability, T/C [18]: 95.1% | viability, T/C [19]: 99.3% | viability, T/C [20]: 101% | viability, T/C [33]: 95.4% | viability, T/C [34]: 88.2% | viability, T/C [21]: 104% | viability, T/C [22]: 97.9% | viability, T/C [23]: 95% | viability, T/C [24]: 96.7% | viability, T/C [35]: 91.6% | viability, T/C [36]: 74.9%

CCCS(=O)(=O)Nc1ccc(F)c(C(=O)c2c[nH]c3ncc(-c4ccc(Cl)cc4)cc23)c1F + Nc1ccc(C#CCN(C(=O)Cc2ncc(C(F)(F)F)cc2C(F)(F)F)c2ccc(F)cc2)nn1
IC50 (second compound 0.0316 µM): > 10 µM | IC50 (second compound 0.1 µM): > 10 µM | IC50 (second compound 0.316 µM): > 10 µM | IC50 (second compound 1 µM): > 10 µM | IC50 (second compound 3.16 µM): > 10 µM | IC50 (second compound 10 µM): > 10 µM | viability, T/C [1]: 101% | viability, T/C [2]: 100% | viability, T/C [3]: 102% | viability, T/C [4]: 111% | viability, T/C [25]: 117% | viability, T/C [26]: 88.8% | viability, T/C [5]: 112% | viability, T/C [6]: 108% | viability, T/C [7]: 105% | viability, T/C [8]: 106% | viability, T/C [27]: 113% | viability, T/C [28]: 87.1% | viability, T/C [9]: 100% | viability, T/C [10]: 108% | viability, T/C [11]: 107% | viability, T/C [12]: 102% | viability, T/C [29]: 106% | viability, T/C [30]: 85.4% | viability, T/C [13]: 103% | viability, T/C [14]: 99.9% | viability, T/C [15]: 107% | viability, T/C [16]: 102% | viability, T/C [31]: 110% | viability, T/C [32]: 81.7% | viability, T/C [17]: 109% | viability, T/C [18]: 100% | viability, T/C [19]: 103% | viability, T/C [20]: 107% | viability, T/C [33]: 111% | viability, T/C [34]: 88.8% | viability, T/C [21]: 95.1% | viability, T/C [22]: 92.8% | viability, T/C [23]: 110% | viability, T/C [24]: 95.3% | viability, T/C [35]: 97.2% | viability, T/C [36]: 85.7%
